Experimental data as given in doi:10.1101/2023.05.15.540887, “Comparative analysis of drug-like EP300/CREBBP acetyltransferase inhibitors” (bioRxiv, 2023).

Key:
[1] = HPLC analysis of photocaged inhibitor release (photodeprotection); format: physicochemical; conditions: 302 nm or 365 nm light, aqueous solution or buffer
Source text: One potential reason EP300/CREBBP acetyltransferase inhibitors are not actively being evaluated in clinical trials is on-target toxicity.[10] Thus, these molecules may benefit from strategies to direct them more specifically to malignant – as opposed to healthy – tissues. Light-activated drug release provides one potential approach.[38] […] Considering the studies above we wondered: could the high potency of the CPI-1612 scaffold enable conditional release of an active EP300/CREBBP inhibitor? To explore this, we prepared a photocaged CPI-1612 analogue (4) (Fig. 5a). […] Parent inhibitor 5 was synthesized based on the published route[40] and derivatized with nitrobenzyl chloroformate to produce the photocaged analogue 4 (Scheme S1). […] Cells were then incubated for 3 h, harvested, and assessed for changes in EP300/CREBBP-dependent H3K18Ac. […]
To assess the ability of 4 to undergo photodeprotection to form 5 in the presence of UV light, we analyzed model reactions by HPLC. […] To assess conversion of 4 to 5, irradiated reactions and controls were analyzed using an Agilent 1260 Infinity HPLC equipped with a Phenomenenex Kinetex C18 column (2.6 μm, 100 Angstrom, 100 × 4.6 mm inner diameter, H20-280322) and UV detector with monitoring at 280 nm. […]

EP300 catalytic domain = biological target: T1, EP300 catalytic domain (Homo sapiens, UniProt Q09472); assay: TR-FRET assay of EP300-catalyzed acetylation of a histone H3 peptide; format: biochemical; conditions: 50 nM H3 peptide and 200 μM acetyl-CoA
T1 construct: disrupt the activity of EP300 catalytic domain; purchased Enzo BML-SE451-0100
T1 sequence (Q09472 1287-1663 limits assumed): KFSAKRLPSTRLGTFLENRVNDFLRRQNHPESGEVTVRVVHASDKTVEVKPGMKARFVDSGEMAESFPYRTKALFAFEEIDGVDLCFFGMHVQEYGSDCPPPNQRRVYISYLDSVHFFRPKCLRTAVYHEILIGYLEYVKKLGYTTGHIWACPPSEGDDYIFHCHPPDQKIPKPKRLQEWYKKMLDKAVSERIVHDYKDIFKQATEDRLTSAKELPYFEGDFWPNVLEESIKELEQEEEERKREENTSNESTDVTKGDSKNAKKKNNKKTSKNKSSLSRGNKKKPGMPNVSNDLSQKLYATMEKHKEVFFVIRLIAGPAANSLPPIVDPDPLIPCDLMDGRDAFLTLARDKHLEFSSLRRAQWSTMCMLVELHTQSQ
Method: Reaction mixtures were incubated for 1 h prior to addition of Alexa Fluor 647-labeled anti-H3K9Ac antibody and Europium-labeled streptavidin.
Briefly, an enzyme mix was made consisting of EP300 (100 nM; Enzo BML-SE451-0100) in assay buffer (25 mM HEPES pH 7.5, 150 mM NaCl, 2 mM DTT, 0.0001% Tween-20, 0.1 mg/m acetylated bovine serum albumin). This enzyme mix (3 μL) was added to white solid-bottom 1536-well plates (Greiner 789175) using a BioRaptr 2.0 Flying Reagent Dispenser (Let’s Go Robotics). […] Plates were read using a PHERAstar FSX microplate reader with HTRF optical module (BMG LabTech) and normalized to no enzyme (negative) and DMSO (neutral) controls. Standard curves were generated through titration of peptide substrate and acetylated peptide [Lys(Ac)9]-Histone H3 (1-21; AnaSpec AS-64191) to benchmark activity. […] Replicate activity measurements in the presence of inhibitors were averaged and half-maximal inhibition values calculated from the nonlinear fit of dose-response data using GraphPad Prism 9.

[2] = test system: EP300/CREBBP-dependent H3K18Ac in MCF-7 cells; assay: Cellular photouncaging, H3K18Ac Western blot in MCF-7 cells; format: cell-based, human; conditions: MCF-7, 10 or 25 μM
Source text: One potential reason EP300/CREBBP acetyltransferase inhibitors are not actively being evaluated in clinical trials is on-target toxicity.[10] Thus, these molecules may benefit from strategies to direct them more specifically to malignant – as opposed to healthy – tissues. Light-activated drug release provides one potential approach.[38] […] Considering the studies above we wondered: could the high potency of the CPI-1612 scaffold enable conditional release of an active EP300/CREBBP inhibitor? To explore this, we prepared a photocaged CPI-1612 analogue (4) (Fig. 5a). […] Parent inhibitor 5 was synthesized based on the published route[40] and derivatized with nitrobenzyl chloroformate to produce the photocaged analogue 4 (Scheme S1). […] To test whether active EP300/CREBBP inhibitor release could be controlled by light, we incubated cells with […] (10 or 25 μM), washed to remove inhibitor in media, and irradiated them for 1 min at 302 nm (Fig. 5e). Cells were then incubated for 3 h, harvested, and assessed for changes in EP300/CREBBP-dependent H3K18Ac. […] Although beyond the scope of the current study, we envision targeted release of potent EP300/CREBBP inhibitors could find utility in malignancies already treated using phototherapy, such as head and neck cancers,[41] as well as valuable applications in basic science.[42] […]

[3] = design: method as in ref 40 = [40]; 40. Wilson J. E.; Brucelle F.; Levelle J. R. P300/CBP HAT inhibitors . WO2019161162A1 , 2019 .; conditions: patent literature; cited from earlier work

Structure (SMILES) | photodeprotection to 5 (HPLC reaction monitoring) [1] | decrease in EP300/CREBBP inhibitor potency of caged relative to uncaged analogue 5 (EP300 catalytic domain) | change in H3K18Ac, treated and exposed to light (UV) ([2]; 302 nm 1 min, then 3 h) | change in H3K18Ac, treated only (no irradiation) ([2]; no UV) | in vivo antitumor activity [3]
COc1cc(COC(=O)N(C[C@@H](C)c2ccc(C#N)cc2)C(C(=O)Nc2ccc(-c3cnn(CC(=O)N4CCCC4)c3)cn2)c2ccccc2)c([N+](=O)[O-])cc1OC (some centres unmarked) [Compound 4] | facile conversion of 4 to 5 | ~ 50 fold | clear decreases in H3K18Ac | no such effect | –
C[C@H](CNC(C(=O)Nc1ccc(-c2cnn(CC(=O)N3CCCC3)c2)cn1)c1ccccc1)c1ccc(C#N)cc1 (some centres unmarked) [Compound 5] | – | – | – | – | potent in vivo antitumor activity
